Experiment [1] concerns the target T1, Poly [ADP-ribose] polymerase tankyrase-2 (Homo sapiens, UniProt Q9H2K2).
T1 sequence (Q9H2K2 whole entry): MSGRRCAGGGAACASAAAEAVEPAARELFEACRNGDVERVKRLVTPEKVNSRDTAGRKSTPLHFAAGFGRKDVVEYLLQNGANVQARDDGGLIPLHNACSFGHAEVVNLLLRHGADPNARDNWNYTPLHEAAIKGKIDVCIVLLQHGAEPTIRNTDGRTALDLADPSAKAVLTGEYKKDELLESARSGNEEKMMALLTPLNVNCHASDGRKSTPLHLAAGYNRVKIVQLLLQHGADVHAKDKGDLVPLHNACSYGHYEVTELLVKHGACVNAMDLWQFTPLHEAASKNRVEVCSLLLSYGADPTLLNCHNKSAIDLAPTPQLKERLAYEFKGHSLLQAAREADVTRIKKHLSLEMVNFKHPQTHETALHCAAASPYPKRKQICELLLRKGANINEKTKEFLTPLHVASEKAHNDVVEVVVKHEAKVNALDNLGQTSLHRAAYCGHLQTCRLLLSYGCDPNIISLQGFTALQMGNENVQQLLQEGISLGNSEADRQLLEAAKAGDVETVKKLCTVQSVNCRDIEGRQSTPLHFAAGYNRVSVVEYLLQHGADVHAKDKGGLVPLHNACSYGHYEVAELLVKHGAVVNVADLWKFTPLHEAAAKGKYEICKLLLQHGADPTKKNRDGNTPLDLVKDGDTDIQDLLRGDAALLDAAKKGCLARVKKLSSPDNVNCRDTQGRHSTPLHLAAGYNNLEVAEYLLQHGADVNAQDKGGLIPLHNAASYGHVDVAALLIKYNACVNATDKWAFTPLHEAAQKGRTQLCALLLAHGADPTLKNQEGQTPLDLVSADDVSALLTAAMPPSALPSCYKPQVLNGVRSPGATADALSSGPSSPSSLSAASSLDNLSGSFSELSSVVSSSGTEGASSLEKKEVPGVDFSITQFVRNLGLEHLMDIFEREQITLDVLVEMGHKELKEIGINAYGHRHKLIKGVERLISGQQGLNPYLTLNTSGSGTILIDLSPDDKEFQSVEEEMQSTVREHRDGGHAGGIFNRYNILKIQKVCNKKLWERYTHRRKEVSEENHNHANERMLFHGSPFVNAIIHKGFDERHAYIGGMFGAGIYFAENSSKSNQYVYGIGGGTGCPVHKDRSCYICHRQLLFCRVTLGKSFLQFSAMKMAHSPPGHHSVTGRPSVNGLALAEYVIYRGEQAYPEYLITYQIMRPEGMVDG
The experiment in a line: Inhibition of tankyrase 2 catalytic domain (unknown origin) expressed in Escherichia coli BL21 (DE3) assessed as reduction in ADP-ribosyl transferase activity using NAD+ by chemiluminescence detection based assay.

Experiment [2] deals with Poly [ADP-ribose] polymerase 1 (Homo sapiens, UniProt P09874). In words: Inhibition of full length PARP1 (unknown origin) expressed in Escherichia coli BL21 (DE3) assessed as reduction in ADP-ribosyl transferase activity using NAD+ by chemiluminescence detection based assay.
Experiment [3] concerns the target T2, Protein mono-ADP-ribosyltransferase PARP10 (Homo sapiens, UniProt Q53GL7).
T2 sequence (Q53GL7 whole entry): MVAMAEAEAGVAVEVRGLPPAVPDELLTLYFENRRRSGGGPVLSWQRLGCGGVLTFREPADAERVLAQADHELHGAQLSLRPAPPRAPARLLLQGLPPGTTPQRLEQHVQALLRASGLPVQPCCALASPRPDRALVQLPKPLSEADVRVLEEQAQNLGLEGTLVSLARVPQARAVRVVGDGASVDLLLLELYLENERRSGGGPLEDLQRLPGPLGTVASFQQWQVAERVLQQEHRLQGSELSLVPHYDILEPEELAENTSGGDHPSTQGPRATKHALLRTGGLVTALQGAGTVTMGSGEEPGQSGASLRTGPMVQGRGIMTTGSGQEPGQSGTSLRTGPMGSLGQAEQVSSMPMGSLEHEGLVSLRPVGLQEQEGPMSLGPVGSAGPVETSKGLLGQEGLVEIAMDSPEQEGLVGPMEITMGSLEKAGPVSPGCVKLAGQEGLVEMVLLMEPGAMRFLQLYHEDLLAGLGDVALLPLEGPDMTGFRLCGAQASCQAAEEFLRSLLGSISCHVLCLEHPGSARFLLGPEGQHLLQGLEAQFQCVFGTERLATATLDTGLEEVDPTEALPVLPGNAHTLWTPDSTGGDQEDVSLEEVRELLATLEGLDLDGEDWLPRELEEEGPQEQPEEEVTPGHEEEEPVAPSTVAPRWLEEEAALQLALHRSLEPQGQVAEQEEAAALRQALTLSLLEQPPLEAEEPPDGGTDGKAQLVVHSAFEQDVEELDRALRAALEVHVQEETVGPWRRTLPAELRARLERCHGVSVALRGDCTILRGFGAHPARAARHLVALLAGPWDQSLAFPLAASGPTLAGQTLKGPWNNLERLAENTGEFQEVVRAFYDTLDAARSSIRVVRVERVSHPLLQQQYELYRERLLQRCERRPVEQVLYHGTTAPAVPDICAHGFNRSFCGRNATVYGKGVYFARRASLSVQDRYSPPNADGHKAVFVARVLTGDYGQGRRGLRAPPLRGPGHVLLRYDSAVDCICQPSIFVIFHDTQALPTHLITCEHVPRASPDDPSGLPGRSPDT
The experiment in a line: Inhibition of full length PARP10 (unknown origin) expressed in Escherichia coli BL21 (DE3) assessed as reduction in ADP-ribosyl transferase activity using NAD+ by chemiluminescence detection based assay.

Experiment [4] addresses T3, Poly [ADP-ribose] polymerase tankyrase-1 (Homo sapiens, UniProt O95271).
T3 sequence (O95271 whole entry): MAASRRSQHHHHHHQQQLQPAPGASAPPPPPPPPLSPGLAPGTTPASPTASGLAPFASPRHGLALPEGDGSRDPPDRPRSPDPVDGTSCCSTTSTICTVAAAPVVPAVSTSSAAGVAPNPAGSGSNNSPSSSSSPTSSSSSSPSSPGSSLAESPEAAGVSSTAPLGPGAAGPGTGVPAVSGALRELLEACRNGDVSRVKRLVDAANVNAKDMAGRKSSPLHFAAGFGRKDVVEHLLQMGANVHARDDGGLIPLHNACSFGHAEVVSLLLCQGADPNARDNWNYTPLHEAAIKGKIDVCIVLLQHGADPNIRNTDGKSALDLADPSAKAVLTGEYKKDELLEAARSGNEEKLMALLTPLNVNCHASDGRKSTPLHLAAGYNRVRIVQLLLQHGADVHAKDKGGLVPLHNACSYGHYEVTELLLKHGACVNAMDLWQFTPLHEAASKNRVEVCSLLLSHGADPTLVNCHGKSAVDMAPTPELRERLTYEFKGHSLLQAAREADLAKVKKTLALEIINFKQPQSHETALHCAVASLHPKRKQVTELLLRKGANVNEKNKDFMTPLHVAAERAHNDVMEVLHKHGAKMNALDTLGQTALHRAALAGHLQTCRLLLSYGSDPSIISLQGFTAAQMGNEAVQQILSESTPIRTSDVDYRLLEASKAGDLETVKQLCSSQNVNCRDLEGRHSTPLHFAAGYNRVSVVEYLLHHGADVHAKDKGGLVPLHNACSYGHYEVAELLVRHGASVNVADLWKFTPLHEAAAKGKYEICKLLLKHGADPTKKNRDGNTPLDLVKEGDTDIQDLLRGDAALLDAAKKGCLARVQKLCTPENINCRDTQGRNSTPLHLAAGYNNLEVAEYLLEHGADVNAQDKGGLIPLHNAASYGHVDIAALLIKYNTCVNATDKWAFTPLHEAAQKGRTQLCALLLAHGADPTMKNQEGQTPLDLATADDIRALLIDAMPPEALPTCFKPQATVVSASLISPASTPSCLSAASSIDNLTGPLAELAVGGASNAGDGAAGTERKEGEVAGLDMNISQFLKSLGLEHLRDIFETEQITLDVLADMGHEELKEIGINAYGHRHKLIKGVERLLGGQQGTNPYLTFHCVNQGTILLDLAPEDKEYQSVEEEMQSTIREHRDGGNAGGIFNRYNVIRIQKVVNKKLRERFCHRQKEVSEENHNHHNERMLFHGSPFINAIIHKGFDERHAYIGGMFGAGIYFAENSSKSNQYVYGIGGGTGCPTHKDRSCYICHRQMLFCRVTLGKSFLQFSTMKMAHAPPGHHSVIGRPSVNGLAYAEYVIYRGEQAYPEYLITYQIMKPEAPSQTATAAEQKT
The experiment in a line: Inhibition of hexa-histidine tagged recombinant tankyrase 1 biotinylated catalytic domain (amino acids 1106 to 1325) (unknown origin) expressed in Escherichia coli BL21 (DE3) assessed as reduction in ADP-ribosyl transferase activity using NAD+ by chemiluminescence detection based assay.

Bounds are passed on as bounds.

10 compounds from ChEMBL document CHEMBL3576815, “Tankyrase 1 Inhibitors with Drug-like Properties Identified by Screening a DNA-Encoded Chemical Library” (J Med Chem, 2015) can be followed below.

Chain of Poly [ADP-ribose] polymerase 1 (P09874 whole entry): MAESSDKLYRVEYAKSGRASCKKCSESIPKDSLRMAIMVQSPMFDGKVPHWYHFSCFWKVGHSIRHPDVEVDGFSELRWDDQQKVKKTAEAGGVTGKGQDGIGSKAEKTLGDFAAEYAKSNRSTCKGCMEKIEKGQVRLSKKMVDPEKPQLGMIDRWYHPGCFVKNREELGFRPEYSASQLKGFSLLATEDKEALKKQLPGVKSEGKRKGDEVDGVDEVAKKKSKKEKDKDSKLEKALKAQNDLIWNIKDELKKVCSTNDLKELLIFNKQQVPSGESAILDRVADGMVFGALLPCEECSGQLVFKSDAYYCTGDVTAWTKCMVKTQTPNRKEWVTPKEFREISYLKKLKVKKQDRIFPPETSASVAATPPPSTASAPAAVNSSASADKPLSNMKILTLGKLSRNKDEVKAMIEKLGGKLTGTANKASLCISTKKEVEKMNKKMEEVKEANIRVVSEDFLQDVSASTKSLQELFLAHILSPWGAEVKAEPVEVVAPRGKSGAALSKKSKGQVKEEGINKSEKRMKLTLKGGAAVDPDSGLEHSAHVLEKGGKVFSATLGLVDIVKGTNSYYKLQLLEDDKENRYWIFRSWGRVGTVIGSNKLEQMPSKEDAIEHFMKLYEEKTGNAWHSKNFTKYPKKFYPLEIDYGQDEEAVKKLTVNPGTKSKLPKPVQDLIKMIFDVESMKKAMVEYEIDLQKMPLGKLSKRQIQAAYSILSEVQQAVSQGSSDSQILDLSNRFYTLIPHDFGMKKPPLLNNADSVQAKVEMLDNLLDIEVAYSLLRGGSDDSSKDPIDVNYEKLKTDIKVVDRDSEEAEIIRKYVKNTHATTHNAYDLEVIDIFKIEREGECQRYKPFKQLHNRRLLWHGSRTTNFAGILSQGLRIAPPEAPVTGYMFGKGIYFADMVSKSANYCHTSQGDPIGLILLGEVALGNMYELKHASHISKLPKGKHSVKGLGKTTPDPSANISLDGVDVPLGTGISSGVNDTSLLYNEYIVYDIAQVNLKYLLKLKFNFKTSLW

In the case of `O=C1CCN(c2ccccc2C(=O)NCc2ccc(-n3cccn3)cc2)C(=O)N1`, the IC50 is 8300 nM in experiment [1] (read-out: IC50); 8320 nM in experiment [1] (read-out: pIC50 (converted)); 220 nM in experiment [2]; greater than 50000 nM in experiment [3]; 330 nM in experiment [4].

On to `COc1ccc2c(c1)C(CC(=O)NCCNC(=O)c1ccccc1N1CCC(=O)NC1=O)CC2=O` (configuration not stated), for which the IC50 was 7900 nM in experiment [1] (read-out: IC50), 7940 nM in experiment [1] (read-out: pIC50 (converted)), 41 nM in experiment [2] and 290 nM in experiment [4].

For `O=C1CCN(c2ccccc2C(=O)NCCc2ccc(Cl)cc2)C(=O)N1`, the IC50 is 2400 nM in experiment [1] (read-out: IC50), 2400 nM in experiment [1] (read-out: pIC50 (converted)), greater than 50000 nM in experiment [3] and 570 nM in experiment [4].

Regarding `O=C1CCN(c2ccccc2C(=O)NCCc2nc(-c3ccccn3)no2)C(=O)N1`, the IC50 in experiment [1] (read-out: IC50) was 8100 nM; in experiment [1] (read-out: pIC50 (converted)), 8130 nM; in experiment [2] it was 260 nM; in experiment [3] it was 2200 nM; in experiment [4] it was 250 nM.

With `CN(Cc1ccc(-n2cccn2)cc1)C(=O)c1ccccc1N1CCC(=O)NC1=O`, the IC50 in experiment [4] came to 2500 nM.

Turning to `COc1ccc2c(c1)C(CC(=O)N1CCN(C(=O)c3ccccc3N3CCC(=O)NC3=O)CC1)CC2=O` (configuration not stated), the IC50 in experiment [1] (read-out: IC50) is 330 nM; in experiment [1] (read-out: pIC50 (converted)), 331 nM; in experiment [2], 200 nM; in experiment [3] it was 34000 nM; in experiment [4], 290 nM.

Turning to `O=C1CCN(c2ccccc2C(=O)NCCc2ccccc2)C(=O)N1`, the IC50 in experiment [4] is 4600 nM.

With `O=C1CCN(c2ccccc2C(=O)NCCc2ccc(Br)cc2)C(=O)N1`, the IC50 was 910 nM in experiment [1] (read-out: IC50), 912 nM in experiment [1] (read-out: pIC50 (converted)), greater than 50000 nM in experiment [3] and 350 nM in experiment [4].

For `O=C1CCN(c2ccccc2C(=O)NCCc2ccc(Cl)cc2Cl)C(=O)N1`, the figures for the IC50 in experiment [2], in experiment [3] and in experiment [4] were 110 nM, greater than 50000 nM and 700 nM, respectively.

As for `COc1ccc2c(c1)C(CC(=O)N[C@@H](CNC(=O)c1ccccc1N1CCC(=O)NC1=O)C(N)=O)CC2=O` (some centres not stated), the IC50 is 470 nM in experiment [1] (read-out: IC50); 468 nM in experiment [1] (read-out: pIC50 (converted)); 28 nM in experiment [2]; greater than 50000 nM in experiment [3]; 370 nM in experiment [4].
